# Laboratory results taken from patent publication US20260191825A1, “CONTRACEPTIVE COMPOUNDS AND DOSING FOR THE SAME” (YourChoice Therapeutics, Inc., priority 2024, published 2026).
# Entries after “also recorded” stand apart in the source; their conditions may differ. Read-outs that look alike come from different tables or passages of the source.
# What was measured:
# CYP2B6 = CYP2B6 (Homo sapiens, UniProt P20813); experiment: In vitro CYP inhibition (direct and time-dependent), CYP2B6; format: in vitro ADME
# Chain of CYP2B6 (P20813 whole entry): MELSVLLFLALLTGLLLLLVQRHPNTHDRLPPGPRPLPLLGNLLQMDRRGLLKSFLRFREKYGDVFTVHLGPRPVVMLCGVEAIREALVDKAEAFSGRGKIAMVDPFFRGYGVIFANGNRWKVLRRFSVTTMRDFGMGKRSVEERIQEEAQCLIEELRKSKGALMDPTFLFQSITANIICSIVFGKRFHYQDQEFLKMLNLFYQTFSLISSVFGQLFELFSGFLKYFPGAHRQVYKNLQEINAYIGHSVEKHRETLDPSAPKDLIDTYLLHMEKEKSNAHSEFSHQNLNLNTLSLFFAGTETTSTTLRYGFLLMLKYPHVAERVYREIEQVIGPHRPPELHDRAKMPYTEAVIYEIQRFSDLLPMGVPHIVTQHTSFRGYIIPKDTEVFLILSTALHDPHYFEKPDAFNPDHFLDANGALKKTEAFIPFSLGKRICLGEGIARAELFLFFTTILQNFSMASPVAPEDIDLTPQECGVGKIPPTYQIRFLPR
# Text: (§1) However, the likelihood of drug interactions is low since healthy participants who meet eligibility criteria will be enrolled in this Phase 1b/2a clinical trial. An allowance for select concomitant medications may be considered for select participants at the discretion of the investigator and/or sponsor if drug profiles are not anticipated to interact with Compound A. Such medications may include, but will not be limited to paracetamol or ibuprofen as assessed by both the PI and the Sponsor. […] Additional precautions to avoid grapefruit, pomegranates, star fruit, or Seville oranges for 7 days prior to admission, and juices and products containing these fruits for the duration of the study will be taken.
# [1] = tested on: central nervous system (CNS); experiment: Rat FOB / CNS safety pharmacology study; format: in vivo; conditions: male Sprague Dawley rats, single oral doses of 3, 10 or 30 mg/kg
# [2] = In vitro stability in microsomes (mouse); format: in vitro ADME; conditions: mice, read-out: Half-life (T1/2) in microsomes
# Method: (§2) Respective half-lives (T1/2) were 9.5 hours (human), 23.1 hours (monkeys), >23.1 hours (mice), >23.1 hours (rats), 19.6 hours (rabbits), and >23.1 hours (dogs).
# plasma proteins = experiment: In vitro plasma protein binding; format: in vitro ADME; conditions: 1 μM, all species tested (human, monkey, mouse, rat, dog)
# rats = experiment: Mating trials with rats; format: in vivo, rat; conditions: control 88%
# [3] = NHP non-GLP 14-day repeat-dose study, PK at the NOAEL; conditions: male, cynomolgus monkey, in vivo, 10 mg/kg, 10 mg/kg (NOAEL); for AUC(0-t): read-out: AUC0-24
# healthy vasectomized men = experiment: Phase 1a single ascending oral dose study, safety and tolerability; format: in vivo, human
# Method: The doses tested under fasting conditions were 10, 30, 90 and 180 mg. […] Cohort 1 first received 10 mg, and after a 5-week washout period received 30 mg. Cohort 2 received 90 mg followed by 180 mg after a 5-week washout period.
# CYP2C19 = CYP2C19 (Homo sapiens, UniProt P33261); experiment: In vitro CYP inhibition (direct and time-dependent), CYP2C19; format: in vitro ADME
# Chain of CYP2C19 (P33261 whole entry): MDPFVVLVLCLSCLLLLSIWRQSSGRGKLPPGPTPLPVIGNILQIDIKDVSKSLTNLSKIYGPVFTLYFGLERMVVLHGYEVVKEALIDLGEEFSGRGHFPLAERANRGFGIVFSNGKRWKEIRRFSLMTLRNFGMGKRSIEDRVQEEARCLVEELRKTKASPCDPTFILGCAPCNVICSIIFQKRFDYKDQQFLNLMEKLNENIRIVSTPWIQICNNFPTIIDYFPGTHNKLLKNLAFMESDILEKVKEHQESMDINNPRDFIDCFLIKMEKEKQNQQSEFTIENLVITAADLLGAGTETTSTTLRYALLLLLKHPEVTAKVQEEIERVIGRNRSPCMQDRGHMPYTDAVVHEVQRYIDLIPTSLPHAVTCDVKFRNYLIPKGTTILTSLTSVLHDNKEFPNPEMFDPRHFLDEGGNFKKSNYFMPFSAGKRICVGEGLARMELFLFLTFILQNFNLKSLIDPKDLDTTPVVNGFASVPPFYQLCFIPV
# Text: as §1
# male Sprague Dawley rats = experiment: Rat 28-day repeat-dose GLP toxicity study; parameters: NOAEL increase over the minimum efficacious dose in rats: dose or concentration left out as unconfirmed
# healthy men = experiment: Phase 1b MAD study (Part 1), 28-day dosing, safety and tolerability; format: in vivo, human
# Method: Cohort 4 (receiving 180 mg) is currently being studied.
# [4] = In vitro stability in microsomes (rat); format: in vitro ADME; conditions: rats
# Method: as §2
# rat micronucleus = experiment: In vivo rat micronucleus study; conditions: highest doses tested
# respiratory system = experiment: Rat respiratory safety pharmacology study; format: in vivo; conditions: male Sprague Dawley rats, single oral doses of 3, 10 or 30 mg/kg
# [5] = rat, 3, 10 or 30 mg/kg/day for 28 days
# [6] = 15, 30 or 90 mg once daily for 28 days
structure (smiles),measurement,setting,value
Cc1ccc(C2=CC(C)(C)Oc3ccc(-c4ccc(-c5ccc(C(=O)O)cc5)[nH]4)cc32)cc1 [Compound A],IC50,CYP2B6; CYP2B6,6.1 µM
same,Time-dependent inhibition (TDI),"CYP2B6; CYP2B6, 0.3 to 100 μM",no TDI potential
same,Main outcomes: rat FOB (adverse effects on CNS),[1],no adverse effects; also recorded: Clean
same,half-life,[2],> 23.1 h
same,Binding to plasma proteins,plasma proteins,at least 99.99%
same,Fertility,rats; 3 mg/kg/day dose group,13%
same,Fertility,rats; 10 mg/kg/day dose group,6%
same,Fertility,rats; 30 mg/kg/day dose group,0%
same,half-life,"[3]; Day 1, mean ± SD",7.9 ± 1.7 h
same,AUC(0-t),"[3]; Day 1, mean",147 µg·h/mL
same,Cmax,"[3]; Day 1, n = 3, mean",13000 ng/mL
same,Cmax,"[3]; Day 14, mean",6530 ng/mL
same,half-life,"[3]; Day 14, mean ± SD",6.2 ± 0.4 h
same,AUC(0-t),"[3]; Day 14, mean",69.7 µg·h/mL
same,Adverse event possibly related to study treatment,healthy vasectomized men; after the 30 mg dose,decreased sex drive in 1 participant
same,Adverse event possibly related to study treatment,"healthy vasectomized men; after the 180 mg dose, Holter monitoring, 1 participant",asymptomatic cardiac arrhythmia of low clinical concern
same,Serious adverse events (SAEs),"healthy vasectomized men; single doses 10, 30, 90, 180 mg, fasting",no serious adverse events
same,Adverse events classified as possibly related to study treatment (number),healthy vasectomized men; single doses 10-180 mg,two
same,Safety and tolerability,"healthy vasectomized men; single doses up to 180 mg, fasted state, healthy volunteers",safe and well tolerated
same,IC50,CYP2C19; CYP2C19,85.1 µM
same,Time-dependent inhibition (TDI),"CYP2C19; CYP2C19, 0.3 to 100 μM",no TDI potential
same,NOAEL increase over the minimum efficacious dose in rats,"male Sprague Dawley rats; rat NOAEL […] mg/kg/day, based on exposure",40 fold
same,Prostate weight,male Sprague Dawley rats; [5],unchanged
same,Recovery from testicular effects,male Sprague Dawley rats; [5],very slow
same,Testosterone levels,"male Sprague Dawley rats; rat, 3, 10 or 30 mg/kg/day for 28 days, inferred from prostate weight",did not change testosterone levels
same,AEs classified as possibly related to study treatment,healthy men; [6],"moderate ventricular triplet, mild skin rash, mild sunburn, mild increased urinary frequency and mild photosensitivity"
same,AEs classified as possibly related to study treatment (number),healthy men; [6],Five
same,Serious adverse events (SAEs),"healthy men; 15, 30 or 90 mg once daily for 28 days, fasting, to date",no serious adverse events
same,Safety and tolerability,"healthy men; 28-day oral administration, up to 90 mg, fasted state",safe and well tolerated
same,half-life,"[4]; rat, read-out: Half-life (T1/2) in microsomes",> 23.1 h
same,Compound remaining intact,[4]; 90 minutes,113%
same,Genotoxicity: rat micronucleus,rat micronucleus,not genotoxic; also recorded: no genotoxic potential; also recorded: Clean
same,Main outcomes: rat respiratory (adverse effects on respiratory system),respiratory system,no adverse effects; also recorded: Clean
